pKi: −log10 of the molar value. Several values for one entry are separate records, joined by “and”; a condition that tells them apart may be missing. Equal values may be shown once. Read-outs that look alike come from different tables or passages of the source.

The target in one assay is T1, recombinant human Icmt (Homo sapiens, UniProt O60725).
T1 construct: a recombinant baculovirus containing the entire open reading frame of the human Icmt cDNA; made in house; host or cells: Sf9 insect cells (baculovirus); membrane fraction used
T1 sequence (O60725 whole entry): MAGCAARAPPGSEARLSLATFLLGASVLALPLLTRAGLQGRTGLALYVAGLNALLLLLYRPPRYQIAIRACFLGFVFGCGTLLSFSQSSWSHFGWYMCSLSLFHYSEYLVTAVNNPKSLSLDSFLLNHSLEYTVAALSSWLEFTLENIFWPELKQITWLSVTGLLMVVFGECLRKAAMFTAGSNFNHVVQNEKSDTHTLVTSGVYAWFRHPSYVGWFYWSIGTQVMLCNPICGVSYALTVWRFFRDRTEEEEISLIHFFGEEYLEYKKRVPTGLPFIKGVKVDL
Nature of the assay: Icmt assay: [3H]methyl incorporation into BFC, Sf9 membranes containing recombinant human Icmt. It counts as biochemical. The note with it: for Km: substrate of recombinant human Icmt, in vitro methylation assay, read-out: Km (apparent) as substrate. The text has this:
Streptavidin-sepharose beads were purchased from Amersham, trans, trans-farnesyl bromide, biotin N-hydroxysuccinimide ester and S-(5'-adenosyl)-L-methionine p-toluenesulfonate were purchased from Sigma-Aldrich, L-cysteine was purchased from Novabiochem, [^3H-methyl]-S-adenosyl-L-methionine was purchased from Perkin Elmer Life Sciences, farnesylthioacetic acid (FTA) was purchased from Biomol, S-(5'-adenosyl)-L-homocysteine was purchased from Fluka. The N-acetyl-S-farnesylcysteine methyl ester (AFCME) and N-acetyl-S-farnesylcysteine methyl amide (AFCMA) were synthesized as previously described ([24-26]). Recombinant human Icmt was prepared by infection of Sf9 cells with a recombinant baculovirus containing the entire open reading frame of the human Icmt cDNA as described. The membrane fraction of the infected Sf9 cells, isolated as described for studies with the Rce1 protease, was used as the source of Icmt for all studies described.
The assay developed for Icmt activity involved quantitation of [^3H]methyl incorporation into the small molecule substrate BFC. For the standard assay, reactions were initiated by addition of Sf9 membranes containing Icmt (0.5 μg protein) to an assay mixture containing BFC (4 μM) and [^3H]AdoMet (5 μM, 1.3 Ci/mmol) in100 mM Hepes, pH 7.4 and 5 mM MgCl2 in a total volume of 45 μl. Reactions were carried out for 20 min at 37°C, whereupon they were terminated by addition of 5 μl of 10% Tween 20. Following termination, streptavidin beads (10 μl of packed beads suspended in 500 μl of 20 mM NaH2PO4, pH 7.4, contaning 150 mM NaCl) were added, and the mixtures mixed by gentle agitation overnight at 4°C. The beads were harvested by centrifugation in a tabletop microcentrifuge at 10,000 rpm for 5 min and washed 3 times with 500 μl of 20 mM NaH2PO4, pH 7.4, containing 150 mM NaCl. The beads were then suspended in 100 μl of the same buffer, transferred to scintillation vials, and radioactivity determined. For the kinetic analyses, the concentrations of substrates (AdoMet, BFC) or additional ligands (eg. AdoHcy, AFCME, etc) were varied as detailed in the legends to the appropriate figures.

Assay [1] relates to methyltransferase activity in rod outer segments. The note with it: cited from earlier work; for pKi: previous study, rod outer segments.
Setting [2] is: varied BFC, fixed AdoMet 5 μM, read-out: Ki with respect to BFC.
Setting [3] is: varied AdoMet, fixed BFC 4 μM, read-out: Ki with respect to AdoMet.

As usually defined, the Km is the substrate concentration at which the rate is half of its maximum. With `CC(=O)N[C@@H](CSCC=C(C)CCC=C(C)CCC=C(C)C)C(=O)O` [AFC, N-acetyl-L-farnesylcysteine], the “apparent Km relative to Km of BFC” value at recombinant human Icmt (AFC Km (ref 20, 31) versus BFC Km 2.1 μM) came out at 10 fold. Also, in assay [1] (read-out: apparent Km as substrate), the Km was 20 µM.

In the case of `C[S+](CC[C@H](N)C(=O)[O-])C[C@H]1O[C@@H](n2cnc3c(N)ncnc32)[C@H](O)[C@@H]1O` (stereo partly drawn) [AdoMet, S-adenosyl-L-methionine], the Michaelis-Menten constant (Km) at recombinant human Icmt amounted to 7.8 µM.

In the case of `CC(C)=CCC/C(C)=C/CC/C(C)=C/CSC[C@H](NC(=O)CCCCC1SCC2NC(=O)NC21)C(=O)O` (stereo partly drawn) [BFC, biotin-S-farnesyl-L-cysteine], at recombinant human Icmt, the Km came out at 2.1 µM.

Take `CNC(=O)[C@H](CSCC=C(C)CCC=C(C)CCC=C(C)C)NC(C)=O` [AFCMA, N-acetyl-S-farnesyl-L-cysteine methyl amide]: the “product inhibition results compared with AFCME” value at recombinant human Icmt (second prenylcysteine-type product analog, data not shown) is on record as “essentially identical results”.

`CC(C)=CCC/C(C)=C/CC/C(C)=C/CSCC(=O)O` [FTA, S-farnesylthioacetic acid]: on recombinant human Icmt (varied AdoMet, fixed BFC 4 μM), the “type of inhibition with respect to AdoMet” value is “Uncompetitive”. Besides, the “type of inhibition with respect to BFC” value on recombinant human Icmt (varied BFC, fixed AdoMet 5 μM) is “Competitive”. For the same compound, the pKi on recombinant human Icmt (setting [2]) was 5.92 and 5.93.

As for `COC(=O)[C@H](CSCC=C(C)CCC=C(C)CCC=C(C)C)NC(C)=O` [AFCME, N-acetyl-S-farnesyl-L-cysteine methylester], the “type of inhibition with respect to AdoMet” value on recombinant human Icmt (varied AdoMet, fixed BFC 4 μM) was “Mixed-type”. The pKi on recombinant human Icmt (setting [3]) was 5.62 and 5.61; at recombinant human Icmt (setting [2]) it was 5.72; in assay [1] (compared with the value with respect to BFC, read-out: inhibition constant with respect to prenylcysteine substrate) it was 4.39; in assay [1] (read-out: inhibition constant with respect to AdoMet), 4.14. Besides, at recombinant human Icmt (varied BFC, fixed AdoMet 5 μM), the “type of inhibition with respect to BFC” value is “Noncompetitive”.

For the compound `Nc1ncnc2c1ncn2[C@@H]1O[C@H](CSCC[C@H](N)C(=O)O)[C@@H](O)[C@H]1O` [AdoHcy, S-adenosyl-L-homocysteine], the “type of inhibition with respect to AdoMet” value at recombinant human Icmt (varied AdoMet, fixed BFC 4 μM) is “Competitive”. Further, the pKi on recombinant human Icmt (setting [3]) is 5.46 and 5.45; on recombinant human Icmt (setting [2]), 5.44. Moreover, at recombinant human Icmt (varied BFC, fixed AdoMet 5 μM), the “type of inhibition with respect to BFC” value is listed as “Competitive”.

The record behind these values is PMC545952, “Analysis of the kinetic mechanism of recombinant human isoprenylcysteine carboxylmethyltransferase (Icmt)” (BMC Biochemistry, 2004).
